Measured values reported in publication PMC6597546, “Identification of a potent benzoxaborole drug candidate for treating cryptosporidiosis” (Nature Communications, 2019).
Where “and” joins values, the source holds several entries; their conditions need not be identical. Equal values may be shown once.

Legend:
[1] = system: C. parvum DMC1 positive parasites; test: Asexual-to-sexual stage conversion assay (DMC1 expression); type: cell-based, Cryptosporidium parvum
Description: The invasion assay, DNA replication assay, asexual to sexual stage conversion, and time-kill curve assays were performed using fluorescence microscopy to enumerate parasites and host cell nuclei. Staining protocols are individually described for each assay. Unless noted otherwise, the details of image acquisition were as follows. An inverted Nikon Eclipse Ti2000 microscope with an automated stage and Perfect Focus was used with NIS-Elements Advanced Research software (Nikon, USA, version 4.30.01) to image the wells. The microscope was programmed to focus on the center of each well and then take a 3 × 3 composite image per well using a 20 × (0.45 NA) objective. Images were exported as .tiff files and parasites and host nuclei counted using a custom macro on ImageJ (National Institutes of Health, version 1.52a). Data were analyzed using Microsoft Excel and GraphPad Prism (version 6.01). […] Amphotericin B (Sigma, catalog# A2942) was added to the culture media at 0.1 to 0.5 µg per mL for the DMC1 dose response assays.

[2] = Single-dose oral and intravenous murine PK; type: in vivo, female CD-1 mice; conditions: female, mouse, plasma, CD-1 mice
Description: (§1) Single-dose oral and intravenous murine PK studies were performed by WuXi Biologics (Wuxi, China) in female CD-1 mice in compliance with animal care guidelines. […] Single-dose oral calf PK studies were performed at the University of Vermont in compliance with animal care guidelines and with approval from the University of Vermont Institutional Animal Care and Use Committee. […] Doses were squirted into the calves’ mouths during interruptions in bottle feeding. Fecal samples were collected at the indicated times by manual anal stimulation. […] Fecal AN7973 was measured by extracting AN7973 from homogenized feces with acetonitrile. For this, feces were added to 4 volumes of acetonitrile (4 mL per g), mixed by vortexing for 5 min at room temperature, and then centrifuged. […] The fecal extraction method was validated with a standard curve of compound added to control feces. […] Non-compartmental analysis of the mean concentration-time profiles was performed using Phoenix version 6.4 (Pharsight Corporation, Mountain View, CA, USA). Concentrations below the limit of quantitation were assigned values of zero for generation of mean concentrations. Predictions of multidose exposures were generated by non-parametric superposition of the single-dose PK data using Phoenix version 6.4 (Supplementary Fig. 5).

Single-dose oral calf PK = type: in vivo, Holstein bull calves; conditions: calves, oral 5 mg per kg
Description: as §1

human lymphocytes = test: In vitro micronucleus genotoxicity assay; type: cell-based; conditions: with and without S9, 3 and 28 h, 0.25 to 260 µg per mL
hERG K+ ion channel = molecular target: T1, hERG K+ ion channel (Homo sapiens, UniProt Q12809); test: hERG radioligand binding competition; conditions: 10 µM test compound, 1 h at 25 °C
T1 construct: Ricerca Biosciences (Taipei, Taiwan), contract laboratory
T1 sequence (Q12809 whole entry): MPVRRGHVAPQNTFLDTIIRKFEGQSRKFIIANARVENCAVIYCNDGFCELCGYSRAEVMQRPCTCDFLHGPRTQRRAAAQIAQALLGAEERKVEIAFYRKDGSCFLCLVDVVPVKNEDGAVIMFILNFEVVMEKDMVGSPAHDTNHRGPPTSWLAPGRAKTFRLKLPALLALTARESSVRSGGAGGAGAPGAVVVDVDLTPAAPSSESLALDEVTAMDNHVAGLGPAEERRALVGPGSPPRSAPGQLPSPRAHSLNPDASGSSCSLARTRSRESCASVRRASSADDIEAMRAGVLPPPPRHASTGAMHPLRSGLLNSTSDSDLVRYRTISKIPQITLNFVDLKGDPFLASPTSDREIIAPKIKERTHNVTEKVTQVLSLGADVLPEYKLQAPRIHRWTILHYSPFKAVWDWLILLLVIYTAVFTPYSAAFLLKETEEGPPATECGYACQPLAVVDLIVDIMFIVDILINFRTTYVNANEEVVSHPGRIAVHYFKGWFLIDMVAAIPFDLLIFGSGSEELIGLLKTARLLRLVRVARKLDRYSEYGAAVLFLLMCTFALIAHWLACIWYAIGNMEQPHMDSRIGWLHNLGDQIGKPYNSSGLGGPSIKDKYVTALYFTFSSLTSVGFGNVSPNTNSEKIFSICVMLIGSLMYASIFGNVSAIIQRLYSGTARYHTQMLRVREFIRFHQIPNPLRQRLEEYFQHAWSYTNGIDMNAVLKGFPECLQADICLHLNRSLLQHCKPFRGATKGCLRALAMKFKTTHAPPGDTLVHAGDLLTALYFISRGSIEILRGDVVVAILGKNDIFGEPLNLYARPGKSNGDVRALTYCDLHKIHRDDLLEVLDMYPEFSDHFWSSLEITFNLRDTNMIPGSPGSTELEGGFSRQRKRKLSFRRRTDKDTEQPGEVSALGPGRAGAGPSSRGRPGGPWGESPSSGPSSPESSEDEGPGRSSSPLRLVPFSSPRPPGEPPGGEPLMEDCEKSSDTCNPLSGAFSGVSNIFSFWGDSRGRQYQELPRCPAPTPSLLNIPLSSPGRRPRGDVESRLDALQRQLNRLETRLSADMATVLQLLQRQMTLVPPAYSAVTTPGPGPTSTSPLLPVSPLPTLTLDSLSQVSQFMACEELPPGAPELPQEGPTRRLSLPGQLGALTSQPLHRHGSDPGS
Description: In vitro safety profiling studies were conducted by Ricerca Biosciences (Taipei, Taiwan) and WuXi AppTec (Suzhou, China). Ricerca performed a Lead Profiling and Adverse Reaction Enzyme panel of 109 off-target enzymes and receptors. This included the hERG K+ ion channel, which is associated with cardiac tachyarrhythmias, and used a radioligand binding competition format with 10 µM test compound for 1 h at 25 °C. For the enzyme and receptor panel, competitive inhibition at 10 µM of test compound was the most common assay format. The AMES bacterial reverse mutation assay detects point mutations in Escherichia coli and Salmonella typhimurium as an indicator of mutagenic activity. Bacterial strains were obtained from Molecular Toxicology (Boone, NC).

[3] = Rat toxicokinetics (TK) study; type: in vivo, Sprague-Dawley male rats; conditions: for AUC / Cmax: po, 80 mg/kg
Description: A repeated oral dose toxicity and separate toxicokinetics (TK) study were performed in male rats by WuXi AppTec Company (Suzhou, China). […] All rat studies were performed using ∼8-week-old Sprague-Dawley male rats (Rattus novegicus)/Crl: CD[SD] VAF/Plus weighing between 243.22 and 276.57 g at the start of compound dosing. […] Serum was collected from vehicle-control animals at 1 h and 4 h after dosing on days 1 and 7.

[4] = Liver microsome Clint (mouse); type: in vitro ADME; conditions: liver microsomes
[5] = Liver microsome Clint (human); type: in vitro ADME; conditions: liver microsomes
[6] = Plasma Protein Binding (mouse); type: in vitro ADME; conditions: read-out: Plasma Protein Binding (PPB) (converted)
[7] = system: CYP450 (2B6, 1A2, 2C9, 2C19, 2D6, 3A4); test: CYP450 inhibition, 6 isoforms; type: in vitro ADME; conditions: @ 10 µM
CYP2C19 = CYP2C19 (Homo sapiens, UniProt P33261); test: CYP450 inhibition 2C19; type: in vitro ADME
CYP2C19, sequence (P33261 whole entry): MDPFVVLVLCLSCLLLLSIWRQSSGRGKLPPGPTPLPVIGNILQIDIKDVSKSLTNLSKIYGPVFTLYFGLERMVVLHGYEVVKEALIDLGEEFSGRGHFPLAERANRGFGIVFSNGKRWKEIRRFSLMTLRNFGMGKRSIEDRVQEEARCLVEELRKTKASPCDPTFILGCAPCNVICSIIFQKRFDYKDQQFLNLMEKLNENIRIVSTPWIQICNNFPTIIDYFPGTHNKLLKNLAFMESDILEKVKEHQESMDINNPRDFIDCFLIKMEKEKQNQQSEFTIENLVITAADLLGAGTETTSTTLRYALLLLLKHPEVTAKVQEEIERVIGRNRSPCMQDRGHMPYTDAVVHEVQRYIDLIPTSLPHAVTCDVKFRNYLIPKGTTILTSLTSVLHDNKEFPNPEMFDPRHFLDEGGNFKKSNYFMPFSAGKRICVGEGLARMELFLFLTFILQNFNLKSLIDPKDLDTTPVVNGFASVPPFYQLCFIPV

CYP2D6 = CYP2D6 (Homo sapiens, UniProt P10635); test: CYP450 inhibition 2D6; type: in vitro ADME
CYP2D6, sequence (P10635 whole entry): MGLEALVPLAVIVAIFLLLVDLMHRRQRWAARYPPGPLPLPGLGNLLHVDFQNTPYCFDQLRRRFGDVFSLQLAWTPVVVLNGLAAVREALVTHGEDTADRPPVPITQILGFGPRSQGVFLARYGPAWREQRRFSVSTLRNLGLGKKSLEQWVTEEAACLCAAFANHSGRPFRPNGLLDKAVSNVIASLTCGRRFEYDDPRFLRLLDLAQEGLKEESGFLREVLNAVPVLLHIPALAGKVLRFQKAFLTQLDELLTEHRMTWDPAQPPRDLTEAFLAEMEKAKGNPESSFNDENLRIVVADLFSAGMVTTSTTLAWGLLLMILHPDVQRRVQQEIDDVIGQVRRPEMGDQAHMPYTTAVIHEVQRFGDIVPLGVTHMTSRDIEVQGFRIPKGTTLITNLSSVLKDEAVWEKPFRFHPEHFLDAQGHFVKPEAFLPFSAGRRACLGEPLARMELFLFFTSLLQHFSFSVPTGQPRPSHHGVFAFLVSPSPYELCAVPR

MDR1 (P-gp) = test: in vitro; conditions: dog
[8] = 2 mg/kg, intravenous 2 mg per kg
[9] = male, Holstein, bovine, plasma, 5 mg/kg
[10] = male, Sprague-Dawley, rat, serum, rat, 80 mg·kg-1 oral once daily, Day 1
[11] = male, Sprague-Dawley, rat, serum, rat, 80 mg·kg-1 oral once daily, Day 7

In the case of `CC1(C)OB(O)c2cc(NC(=O)c3ccc(-n4cccn4)cc3Cl)ccc21` [AN7973], the EC50 ([1]; Cryptosporidium parvum, BGF Iowa isolate, HCT-8, 10% FBS, DMC1, interval in parentheses, read-out: EC50 asexual-to-sexual conversion (48–72 h)) is reported as 480 nM, the “% inhibition, 48 - 72 h DMC1 (asexual to sexual conversion)” value (“% inhibition, 48 - 72 h DMC1” for short) ([1]; log [AN7973] (M) 0.10) is reported as 95.75% and the “% inhibition, 48 - 72 h DMC1” value ([1]; log [AN7973] (M) 0.28) is reported as 95.64% and 78.65%. The “% inhibition, 48 - 72 h DMC1” value ([1]; log [AN7973] (M) 0.40) was 95.48%, the “% inhibition, 48 - 72 h DMC1” value ([1]; log [AN7973] (M) -0.20) was 85.62% and 65.23% and 46.69% and the “% inhibition, 48 - 72 h DMC1” value ([1]; log [AN7973] (M) -0.68) was -48.74% and -54.94% and -50.77%. For the same compound, the “% inhibition, 48 - 72 h DMC1” value ([1]; log [AN7973] (M) -0.93) was -98.53%, the “% inhibition, 48 - 72 h DMC1” value ([1]; log [AN7973] (M) -1.23) was -40.27% and the “% inhibition, 48 - 72 h DMC1” value ([1]; log [AN7973] (M) -1.53) was -58.48%. The “% inhibition, 48 - 72 h DMC1” value ([1]; log [AN7973] (M) -2.01) was -35.29%, the “% inhibition, 48 - 72 h DMC1” value ([1]; log [AN7973] (M) -2.48) was -28.64% and the AUC(0-inf) [2, 8] was 49.7 µg·h/mL. For the same compound, the Cmax [2, 8] was 6820 ng/mL, the clearance [2, 8] was 0.667 mL/min/kg and the half-life [2, 8] was 6 h. For the same compound, the AUC(0-inf) ([2]; 10 mg/kg, oral 10 mg per kg) was 92.7 µg·h/mL, the Cmax ([2]; 10 mg/kg, oral 10 mg per kg) was 8630 ng/mL and the half-life ([2]; 10 mg/kg, oral 10 mg per kg) was 6.6 h. For the same compound, the bioavailability ([2]; 10 mg/kg, oral 10 mg per kg, read-out: bioavailability F) was 37%, the t1/2 (Single-dose oral calf PK) was 31.1 h and the AUC(0-inf) (Single-dose oral calf PK; [9]) was 190 µg·h/mL. For the same compound, the Cmax (Single-dose oral calf PK; [9]) was 3570 ng/mL, the half-life (Single-dose oral calf PK; male, Holstein, bovine, plasma, po, 5 mg/kg) was 31 h and the In vitro micronucleus (human lymphocytes) was “negative”. The hERG inhibition (hERG K+ ion channel) was “negative”, the compound accumulation ([3]; 80 mg per kg once daily, 7 days) was “No compound accumulation was observed” and the AUC [3, 10] was 170 µg·h/mL. It also gave a Cmax [3, 10] of 11600 ng/mL, an AUC [3, 11] of 155 µg·h/mL and a Cmax [3, 11] of 10100 ng/mL. The Tmax ([3]; male, Sprague-Dawley, serum, rat, 80 mg·kg-1 oral once daily, Day 1) was 8 h, the half-life ([3]; male, Sprague-Dawley, serum, rat, 80 mg·kg-1 oral once daily, Day 7) was 22.7 h and the microsomal CLint [4] was less than 1 µL/min/mg. For the same compound, the microsomal CLint [5] was less than 1 µL/min/mg, the fraction unbound [6] was 0.011 and the “CYP450 inhibition (in 6 isoforms – 2B6, 1A2, 2C9, 2C19, 2D6, 3A4)” value [7] was “Negative”. The inhibition at 10 µM (CYP2C19) was 27%, the inhibition at 10 µM (CYP2D6) was 0% and the Papp (MDR1 (P-gp); MDCK-MDR1, MDCK-MDR1 Papp) was 56.5 ×10⁻⁶ cm/s. For the same compound, the Papp (MDR1 (P-gp); MDCK-MDR1, MDCK-MDR1 Papp + Pgp inhibitor) was 60.6 ×10⁻⁶ cm/s.
